Data from patent publication US11759462B2, “Spirocyclic compounds as tryptophan hydroxylase inhibitors” (priority 2013, dated 2023).

Molecular target: T1, Recombinant human TPH1 (MBP tagged) (Homo sapiens, UniProt P17752)
T1 construct: cloning full length human TPH1 cDNA in to a bacterial pMAL-c5E expression vector; made in house; host or cells: E. coli BL21 (DE3)
T1 sequence (P17752 1-444): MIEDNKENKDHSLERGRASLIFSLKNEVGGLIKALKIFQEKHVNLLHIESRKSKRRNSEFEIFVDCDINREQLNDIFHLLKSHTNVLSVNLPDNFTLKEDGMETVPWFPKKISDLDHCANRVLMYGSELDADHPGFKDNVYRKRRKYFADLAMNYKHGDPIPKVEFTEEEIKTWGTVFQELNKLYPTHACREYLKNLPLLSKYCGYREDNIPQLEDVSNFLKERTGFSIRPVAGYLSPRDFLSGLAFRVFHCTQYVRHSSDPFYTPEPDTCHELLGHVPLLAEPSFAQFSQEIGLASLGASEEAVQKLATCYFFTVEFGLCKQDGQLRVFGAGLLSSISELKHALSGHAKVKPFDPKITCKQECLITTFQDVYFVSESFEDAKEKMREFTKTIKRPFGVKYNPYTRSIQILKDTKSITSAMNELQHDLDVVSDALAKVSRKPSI
Test: TPH1 in vitro inhibition assay (kinetic fluorescence)
Type: biochemical
Conditions: read-out: TPH1 Range (TPH1 inhibition IC50)
Outline: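 Final mix: 15 nM MBP-TPH1, 30 μM Trp, 36 μM 6-methyltetrahydropterin, 25 μM ferrous ammonium sulfate, 50 mM MES pH 7.1, 1% DMSO, room temperature.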

IC50 | Structure (SMILES)
0.05 to 0.3 µM | Nc1nc(O[C@H](c2ccc(-c3ccc4[nH]c(=O)oc4c3)cc2)C(F)(F)F)cc(N2CCC3(CC2)CN[C@H](C(=O)O)C3)n1 [Example 55ab, (S)-8-(2-amino-6-((R)-2,2,2-trifluoro-1-(4-(2-oxo-2,3-dihydrobenzo[d]oxazol-6-yl)phenyl)ethoxy)pyrimidin-4-yl)-2,8-diazaspiro[4.5]decane-3-carboxylic acid]
0.05 to 0.3 µM | CCc1ccc(-c2ccc([C@@H](Oc3cc(N4CCC5(CC4)CN[C@H](C(=O)O)C5)nc(N)n3)C(F)(F)F)cc2)cc1 [Example 55bz, (S)-8-(2-amino-6-((R)-1-(4′-ethyl-[1,1′-biphenyl]-4-yl)-2,2,2-trifluoroethoxy)pyrimidin-4-yl)-2,8-diazaspiro[4.5]decane-3-carboxylic acid]
< 0.05 µM | CCCc1ccc([C@@H](Oc2cc(N3CCC4(CC3)CN[C@H](C(=O)O)C4)nc(N)n2)C(F)(F)F)c(-c2cccc(S(C)(=O)=O)c2)c1 [Example 54a, (S)-8-(2-Amino-6-((R)-2,2,2-trifluoro-1-(3′-(methylsulfonyl)-5-propyl-[1,1′-biphenyl]-2-yl)ethoxy)pyrimidin-4-yl)-2,8-diazaspiro[4.5]decane-3-carboxylic acid]
0.3 to 3 µM | CN(C)Cc1ccccc1-c1ccc([C@@H](Oc2cc(N3CCC4(CC3)CN[C@H](C(=O)O)C4)nc(N)n2)C(F)(F)F)cc1 [Example 55by, (S)-8-(2-amino-6-((R)-1-(2′-((dimethylamino)methyl)-[1,1′-biphenyl]-4-yl)-2,2,2-trifluoroethoxy)pyrimidin-4-yl)-2,8-diazaspiro[4.5]decane-3-carboxylic acid]
0.05 to 0.3 µM | CN(C)Cc1ccc(-c2ccc([C@@H](Oc3cc(N4CCC5(CC4)CN[C@H](C(=O)O)C5)nc(N)n3)C(F)(F)F)cc2)cc1 [Example 55bf, (S)-8-(2-amino-6-((R)-1-(4′-((dimethylamino)methyl)-[1,1′-biphenyl]-4-yl)-2,2,2-trifluoroethoxy)pyrimidin-4-yl)-2,8-diazaspiro[4.5]decane-3-carboxylic acid]
< 0.05 µM | Nc1nc(O[C@H](c2ccc(Cl)cc2-c2cc(F)cc(C(F)(F)F)c2)C(F)(F)F)cc(N2CCC3(CC2)CN[C@H](C(=O)O)C3)n1 [Example 34aq, (S)-8-(2-amino-6-((R)-1-(5-chloro-3′-fluoro-5′-(trifluoromethyl)-[1,1′-biphenyl]-2-yl)-2,2,2-trifluoroethoxy)pyrimidin-4-yl)-2,8-diazaspiro[4.5]decane-3-carboxylic acid]
< 0.05 µM | Nc1nc(O[C@H](c2ccc(-c3ccc4[nH]cnc4c3)cc2)C(F)(F)F)cc(N2CCC3(CC2)CN[C@H](C(=O)O)C3)n1 [Example 55d, (S)-8-(6-((R)-1-(4-(1H-benzo[d]imidazol-5-yl)phenyl)-2,2,2-trifluoroethoxy)-2-aminopyrimidin-4-yl)-2,8-diazaspiro[4.5]decane-3-carboxylic acid]
0.05 to 0.3 µM | CS(=O)(=O)c1ccc([C@@H](Oc2cc(N3CCC4(CC3)CN[C@H](C(=O)O)C4)nc(N)n2)C(F)(F)F)c(-c2ccccc2)c1 [Example 54d, (S)-8-(2-amino-6-((R)-2,2,2-trifluoro-1-(5-(methylsulfonyl)-[1,1′-biphenyl]-2-yl)ethoxy)pyrimidin-4-yl)-2,8-diazaspiro[4.5]decane-3-carboxylic acid]
< 0.05 µM | Cc1ccn(-c2cc(-c3ccc(C)c(C)c3)ccc2[C@@H](Oc2cc(N3CCC4(CC3)CN[C@H](C(=O)O)C4)nc(C)n2)C(F)(F)F)n1 [Example 29d, (S)-8-(6-((R)-1-(3′,4′-dimethyl-3-(3-methyl-1H-pyrazol-1-yl)-[1,1′-biphenyl]-4-yl)-2,2,2-trifluoroethoxy)-2-methylpyrimidin-4-yl)-2,8-diazaspiro[4.5]decane-3-carboxylic acid]

The next lines start with the molecule.

Structure (SMILES) | IC50
CCc1ccc(-n2ccc(C)n2)c([C@@H](Oc2cc(N3CCC4(CC3)CN[C@H](C(=O)O)C4)nc(N)n2)C(F)(F)F)c1 [Example 22a, (S)-8-(2-amino-6-((R)-1-(5-ethyl-2-(3-methyl-H-pyrazol-1-yl)phenyl)-2,2,2-trifluoroethoxy)pyrimidin-4-yl)-2,8-diazaspiro[4.5]decane-3-carboxylic acid] | < 0.05 µM
Nc1nc(OC(c2c(Br)cccc2Br)C(F)(F)F)cc(N2CCC3(CC2)CN[C@H](C(=O)O)C3)n1 (stereo partly drawn) [Example 47, (3S)-8-(2-Amino-6-(1-(2,6-dibromophenyl)-2,2,2-trifluoroethoxy)pyrimidin-4-yl)-2,8-diazaspiro[4.5]decane-3-carboxylic acid] | 0.3 to 3 µM
Cc1ccn(-c2cc(Cl)ccc2[C@@H](Oc2cnnc(N3CCC4(CC3)CN[C@H](C(=O)O)C4)c2)C(F)(F)F)n1 [Example 43, (S)-8-(5-((R)-1-(4-chloro-2-(3-methyl-H-pyrazol-1-yl)phenyl)-2,2,2-trifluoroethoxy)pyridazin-3-yl)-2,8-diazaspiro[4.5]decane-3-carboxylic acid] | 3 to 10 µM
C/C=C/c1ccc(-n2ccc(C)n2)c([C@@H](Oc2cc(N3CCC4(CC3)CN[C@H](C(=O)O)C4)nc(N)n2)C(F)(F)F)c1 [Example 19b, (S)-8-(2-amino-6-((R)-2,2,2-trifluoro-1-(2-(3-methyl-1H-pyrazol-1-yl)-5-((E)-prop-1-en-1-yl)phenyl)ethoxy)pyrimidin-4-yl)-2,8-diazaspiro[4.5]decane-3-carboxylic acid] | < 0.05 µM
COc1ccc(-c2ccc([C@@H](Oc3cc(N4CCC5(CC4)CN[C@H](C(=O)O)C5)nc(N)n3)C(F)(F)F)c(-n3ccc(C)n3)c2)cn1 [Example 1s, (S)-8-(2-amino-6-((R)-2,2,2-trifluoro-1-(4-(6-methoxypyridin-3-yl)-2-(3-methyl-1H-pyrazol-1-yl)phenyl)ethoxy)pyrimidin-4-yl)-2,8-diazaspiro[4.5]decane-3-carboxylic acid] | < 0.05 µM
Cc1ccn(-c2ccc(/C=C/C(=O)O)cc2[C@@H](Oc2cc(N3CCC4(CC3)CN[C@H](C(=O)O)C4)nc(N)n2)C(F)(F)F)n1 [Example 19d, (S)-8-(2-amino-6-((R)-1-(5-((E)-2-carboxyvinyl)-2-(3-methyl-1H-pyrazol-1-yl)phenyl)-2,2,2-trifluoroethoxy)pyrimidin-4-yl)-2,8-diazaspiro[4.5]decane-3-carboxylic acid] | 0.05 to 0.3 µM
C=Cc1ccc(-n2ccc(C)n2)c([C@@H](Oc2cc(N3CCC4(CC3)CN[C@H](C(=O)O)C4)nc(N)n2)C(F)(F)F)c1 [Example 19a, (S)-8-(2-amino-6-((R)-2,2,2-trifluoro-1-(2-(3-methyl-1H-pyrazol-1-yl)-5-vinylphenyl)ethoxy)pyrimidin-4-yl)-2,8-diazaspiro[4.5]decane-3-carboxylic acid] | < 0.05 µM
Cc1ccn(-c2cc(C(=O)OCC(C)C)ccc2[C@@H](Oc2cc(N3CCC4(CC3)CN[C@H](C(=O)O)C4)nc(N)n2)C(F)(F)F)n1 [Example 18e, (S)-8-(2-amino-6-((R)-2,2,2-trifluoro-1-(4-(isobutoxycarbonyl)-2-(3-methyl-1H-pyrazol-1-yl)phenyl)ethoxy)pyrimidin-4-yl)-2,8-diazaspiro[4.5]decane-3-carboxylic acid] | < 0.05 µM
Cc1ccn(-c2cc(-c3ccc([S+](C)[O-])cc3)ccc2[C@@H](Oc2cc(N3CCC4(CC3)CN[C@H](C(=O)O)C4)nc(N)n2)C(F)(F)F)n1 (stereo partly drawn) [Example 1a, (3S)-8-(2-amino-6-((1R)-2,2,2-trifluoro-1-(3-(3-methyl-1H-pyrazol-1-yl)-4′-(methylsulfinyl)-[1,1′-biphenyl]-4-yl)ethoxy)pyrimidin-4-yl)-2,8-diazaspiro[4.5]decane-3-carboxylic acid] | < 0.05 µM
